“And” between values parts separate entries of the source, which are not always exact repeats. Identical values can stand only once.
What was measured:
[1] = tested on: DHT-induced growth of LNCaP (AR+) PCa cells; assay: Inhibition of dihydrotestosterone-induced cell proliferation of LNCaP PCa cells; details: 0.1 nM DHT, 48 h; for inhibition of growth induced by DHT: 0.125 μM dimer
[2] = tested on: TS-induced growth of LNCaP (AR+) PCa cells; assay: Inhibition of testosterone-induced cell proliferation of LNCaP PCa cells; assay type: cell-based, human; details: 48 h; for reduction relative to the proliferative response induced by 0.1 nM TS: 1 μM dimer
[3] = molecular target: isolated recombinant CYP3A4 (Homo sapiens, UniProt P08684); assay: Equilibrium ligand binding to CYP3A4; details: for high spin: high spin content of ligand-bound CYP3A4, mean of three ± SD; for Kd, fold lower than for 14β: relative to 14β
Sequence of isolated recombinant CYP3A4 (P08684 whole entry): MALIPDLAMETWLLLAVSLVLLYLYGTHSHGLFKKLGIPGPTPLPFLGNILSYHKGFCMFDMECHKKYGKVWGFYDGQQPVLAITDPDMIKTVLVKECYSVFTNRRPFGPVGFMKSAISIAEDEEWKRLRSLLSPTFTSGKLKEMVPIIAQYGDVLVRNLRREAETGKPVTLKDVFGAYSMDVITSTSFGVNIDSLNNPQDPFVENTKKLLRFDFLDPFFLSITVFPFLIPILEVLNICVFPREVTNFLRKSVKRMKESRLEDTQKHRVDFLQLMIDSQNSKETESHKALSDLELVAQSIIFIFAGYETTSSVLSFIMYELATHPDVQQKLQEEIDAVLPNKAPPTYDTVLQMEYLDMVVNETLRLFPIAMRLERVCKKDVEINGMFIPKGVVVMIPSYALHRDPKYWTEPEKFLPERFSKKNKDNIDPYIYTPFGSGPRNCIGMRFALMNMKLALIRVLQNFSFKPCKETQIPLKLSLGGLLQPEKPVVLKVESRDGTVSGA

[4] = tested on: LNCaP (AR+) androgen-sensitive human prostate adenocarcinoma cells; assay: MTT antiproliferative activity assay on LNCaP cells; assay type: cell-based; details: relative to cyproterone acetate
[5] = tested on: PC3 (AR−) androgen-insensitive human prostate adenocarcinoma cells; assay: MTT antiproliferative activity assay on PC3 cells; assay type: cell-based; details: read-out: IC50 PC3 (AR−), 48 h, concentration inhibiting cell growth by 50%
[6] = tested on: LNCaP, PC3 and DU145 prostate cancer cells; assay: MTT antiproliferative activity, summarised over the three PCa cell lines; assay type: cell-based; details: Homo sapiens, read-out: IC50 range on different cell lines
[7] = tested on: LNCaP (AR+) PCa cells; details: read-out: IC50 LNCaP (AR+); MTT antiproliferative assay; cited from earlier work
[8] = tested on: PC3 (AR−) PCa cells; details: read-out: IC50 PC3 (AR−); MTT antiproliferative assay; cited from earlier work

C[C@]12CC[C@H]3[C@@H]([C@H](/C=C/C=C/C=C/[C@@H]4CC5=CC(=O)CC[C@]5(C)[C@H]5CC[C@]6(C)[C@H](O)CC[C@H]6[C@H]45)CC4=CC(=O)CC[C@@]43C)[C@@H]1CC[C@H]2O (relative stereo) [Compound 14α, trans, trans,trans-1,6-bis-(17α-hydroxy-4-androsten-3-one-7α-yl)hexatriene]
concentration at which 100% effective against DHT-induced cell proliferation [1]: 1 µM | inhibition of growth induced by DHT [1]: at least 45% | concentration at which 100% effective against TS-induced cell proliferation ([2]; 0.1 nM TS): 0.25 µM | reduction relative to the proliferative response induced by 0.1 nM TS [2]: ~ 141% | high spin [3]: 46 ± 3% | Kd, fold lower than for 14β [3]: ~ 4 fold

C[C@]12CC[C@H]3[C@@H]([C@H](/C=C/C=C/C=C/[C@@H]4CC5=CC(=O)CC[C@]5(C)[C@H]5CC[C@]6(C)[C@@H](O)CC[C@H]6[C@H]45)CC4=CC(=O)CC[C@@]43C)[C@@H]1CC[C@@H]2O (relative stereo) [Compound 14β, trans, trans,trans-1,6-bis-(17β-hydroxy-4-androsten-3-one-7α-yl)hexatriene]
concentration at which 100% effective against DHT-induced cell proliferation [1]: 1 µM | inhibition of growth induced by DHT [1]: at least 45% | concentration at which 100% effective against TS-induced cell proliferation ([2]; 0.1 nM TS): 0.5 µM | inhibition of growth induced by TS ([2]; 0.125 μM dimer, 0.1 nM TS): at least 45% | reduction relative to the proliferative response induced by 0.1 nM TS [2]: 104% | times more active than CPA (IC50 ratio) [4]: ~ 5 times | high spin [3]: 49 ± 3%

C=CC=C[C@@H]1CC2=CC(=O)CC[C@]2(C)[C@H]2CC[C@]3(C)[C@H](O)CC[C@H]3[C@H]12 [Compound 13α, 7α-(buta-1,3-dienyl)-4-androsten-17α-ol-3-one]
IC50 [5]: 31.5 µM | times more active than CPA (IC50 ratio) [4]: about 4 times

C=CC=C[C@@H]1CC2=CC(=O)CC[C@]2(C)[C@H]2CC[C@]3(C)[C@@H](O)CC[C@H]3[C@H]12 [Compound 13β, 7α-(buta-1,3-dienyl)-4-androsten-17β-ol-3-one]
IC50 [5]: 34.1 µM

C[C@]12CCC(=O)C=C1C[C@@H](/C=C/C=C/C=C/[C@@H]1CC3=CC(=O)CC[C@]3(C)[C@H]3CC[C@]4(C)C(=O)CC[C@H]4[C@H]13)[C@@H]1[C@@H]2CC[C@]2(C)C(=O)CC[C@@H]12 [Compound 14, trans, trans,trans-1,6-bis-(4-androsten-3,17-dione-7α-yl)hexatriene]
IC50 [6]: 29 to 72.7 µM | high spin [3]: 36 ± 2% | Kd, fold lower than for 14β [3]: ~ 4 fold

C[C@]12CC[C@H]3[C@@H]([C@H]([C@H]4C=CC[C@H]5C(=O)OC(=O)[C@@H]45)CC4=CC(=O)CC[C@@]43C)[C@@H]1CC[C@@H]2O [Compound 15, 4-(17β-hydroxy-4-androsten-3-one-7α-yl)-3a,4,7,7a-tetrahydro-isobenzofuran-1,3-dione]
IC50 [6]: 62.5 to 131 µM

C[C@]12CC[C@H]3[C@@H]([C@H](C/C=C\C[C@@H]4CC5=CC(=O)CC[C@]5(C)[C@H]5CC[C@]6(C)[C@@H](O)CC[C@H]6[C@H]45)CC4=CC(=O)CC[C@@]43C)[C@@H]1CC[C@@H]2O [cis-10]
IC50 [7]: 30.3 µM | high spin [3]: 99 ± 1% | IC50 [8]: 24.7 µM

C[C@]12CC[C@H]3[C@@H]([C@H](C/C=C/C[C@@H]4CC5=CC(=O)CC[C@]5(C)[C@H]5CC[C@]6(C)[C@@H](O)CC[C@H]6[C@H]45)CC4=CC(=O)CC[C@@]43C)[C@@H]1CC[C@@H]2O [trans-10, reference compound]
high spin [3]: 65% and 65 ± 4%
